Measured values taken from patent US20140023713A1, “CLATHRATE COMPLEX OF CYCLODEXTRIN OR ARABINOGALACTAN WITH 9-PHENYL-SYM-OCTA-HYDROSELENOXANTENE” (priority 2011, published 2014).
Entries after “also recorded” stand apart in the source; their conditions may differ. Like-named read-outs stand apart in the source and are kept apart here.

Experiments:
[1] = tested on: hematopoietic stem cells; assay: cloning method of hematopoietic stem cells in the spleens of irradiated mice (spleen colony formation by donor bone marrow cells, radioprotection); assay type: in vivo
Description: The study of radioprotective and cytoprotective properties of compound 1 and the complex compound 2 (ratio 1:3) by cloning method of hematopoietic stem cells in the spleens of irradiated mice.
1) Formation of spleen colonies by bone marrow cells of mice that received Compound 2 multiple times prior to irradiation at a dose of 1.5 Gy. Unlike compound 1, the complex form of compound 2 is water-soluble.
Compound 2 was administered orally to mice-donors of bone marrow at doses of 5 mg/kg and 2 mg/kg in 0.2 ml physiological solution for 5 days. […] Control mice received 0.2 ml of physiological solution for 5 days. 7 days after the last injection, mice were irradiated (1.5 Gy at installation “Luch-1”). 15 minutes later the animals were sacrificed, a bone marrow cell suspension was prepared and injected to lethally irradiated recipient mice for determination of the colony-forming ability.
2) Formation of spleen colonies by bone marrow cells of mice that received Compound 1, suspended in a starch gel, multiple times prior to irradiation at a dose of 1.5 Gy.
In the second series of experiments using the same experimental scheme and similar doses, the Compound 1 suspension was prepared in 2% starch gel. 90 female mice (CBA×C57B1/6) F1 were used in this study: 18 donors and 72 recipients.

[2] = tested on: CFU-C-8; assay type: in vivo, mice
Description: A study on cytoprotective effect of the compound 1 was conducted.

| SMILES | Quantity of colonies on 105 cells of bone marrow M ± m ([1]; Compound 1 2 mg/kg + Starch gel 2%, no irradiation, 2 mg/kg) | Quantity of colonies on 105 cells of bone marrow M ± m ([1]; Compound 1 2 mg/kg + Starch gel 2%, no irradiation, listed as compound 1, 2 mg/kg) | Quantity of colonies on 105 cells of bone marrow M ± m ([1]; Compound 1 2 mg/kg + Starch gel 2%, then 1.5 Gy irradiation) | Quantity of colonies on 105 cells of bone marrow M ± m ([1]; Compound 1 5 mg/kg + Starch gel 2%, no irradiation, 5 mg/kg) | Quantity of colonies on 105 cells of bone marrow M ± m ([1]; Compound 1 5 mg/kg + Starch gel 2%, no irradiation, listed as compound 1, 5 mg/kg) | Quantity of colonies on 105 cells of bone marrow M ± m ([1]; Compound 1 5 mg/kg + Starch gel 2%, then 1.5 Gy irradiation) | adaptive response of hematopoietic stem cells to irradiation / radioprotective effect (in words) ([1]; treatment for 5 days prior to irradiation 1.5 Gy, both doses (5 and 2 mg/kg)) | CFU-C-8 Quantity on 10^5 bone marrow cells of donors ([2]; Compound 1 5 mg/kg 7 days prior to single Cisplatin 5 mg/kg) | CFU-C-8 Quantity on 10^5 bone marrow cells of donors ([2]; Compound 1 5 mg/kg, no Cisplatin) | adaptive response of CFU-S-8 to cisplatin (in words) ([2]; administered 7 days prior to a single injection of cisplatin) | CFU-C-8 Quantity on 10^5 bone marrow cells of donors ([2]; mouse, in vivo) |
| --- | --- | --- | --- | --- | --- | --- | --- | --- | --- | --- | --- |
| c1ccc(C2C3=C(CCCC3)[Se]C3=C2CCCC3)cc1 [Compound 1, 9-phenyl-sym-octahydroselenoxanthene] | 24 ± 1.3 | statistically significant increase in the number of colonies | 9.1 ± 0.3 | 28.7 ± 1.1 | statistically significant increase in the number of colonies | 9.5 ± 0.8 | absent; also recorded: does not provide the radioprotective effect | 9.6 ± 0.3 | 12.6 ± 0.6 | distinct adaptive response | – |
| N.N.[Cl][Pt][Cl] [Cisplatin, reference compound] | – | – | – | – | – | – | – | – | – | – | 6.4 ± 0.6 |
